Assay results from patent publication US20260365677A1, “NEW CONTRAST AGENTS FOR USE IN DIAGNOSTIC IMAGING” (Bayer Aktiengesellschaft, priority 2022, published 2026).

Assays:
[1] = Relaxivity measurements at 1.41 T in water and human plasma; type: physicochemical; details: 37 °C, normalized to Gd
Description: Relaxivity measurements at 1.41 T were performed using a MiniSpec mq60 spectrometer (Bruker Analytik, Karlsruhe, Germany) operating at a resonance frequency of 60 MHz and a temperature of 37 °C. The T1 relaxation times were determined using the standard inversion recovery (IR) method with a fixed relaxation delay of at least 5×T1. The variable inversion time (TI) was calculated automatically by the standard software of the MiniSpec mq60 (8 steps). The T2 measurements were performed by using a Carr-Purcell-Meiboom-Gill (CPMG) pulse sequence, applying a relaxation delay of at least 5×T1.
Each relaxivity measurement was performed using three different Gd concentrations (3 concentrations between 0.05 and 2 mM). The T1 and T2 relaxation times of the example compounds 1 to 10 were measured in different media for example in water and human plasma. Human plasma preparation: For each experiment fresh blood was taken from a volunteer using 10 mL citrate-tubes (Sarstedt S-Monovette 02.1067.001, 10 mL, Citrate). The 10 mL citrate-tubes were carefully inverted 10 times to mix blood and anticoagulant and centrifuged for 15 min at 1811 g at RT (Eppendorf, Centrifuge 5810R).
The relaxivities ri (where i=1, 2) were calculated based on the measured relaxation rates R, in water and plasma:
where Ri(0) represent the relaxation rate of the respective solvent and CGd the concentration of the compound normalized to the Gadolinium. The Gadolinium concentrations of the investigated solutions were verified by Inductively Coupled Plasma Mass Spectrometry (ICP-MS Agilent 7500a, Waldbronn, Germany).

OATP1B3 = biological target: T1, OATP1B3 (Homo sapiens, UniProt Q9NPD5); experiment: Uptake into stable transfected OATP1B3 HEK 293 cells; type: cell-based; details: 100 μM, 40 min, relative to RC1 (Gd-EOB-DTPA)
T1 construct: expressed in transfected cells
T1 sequence (Q9NPD5 1-702): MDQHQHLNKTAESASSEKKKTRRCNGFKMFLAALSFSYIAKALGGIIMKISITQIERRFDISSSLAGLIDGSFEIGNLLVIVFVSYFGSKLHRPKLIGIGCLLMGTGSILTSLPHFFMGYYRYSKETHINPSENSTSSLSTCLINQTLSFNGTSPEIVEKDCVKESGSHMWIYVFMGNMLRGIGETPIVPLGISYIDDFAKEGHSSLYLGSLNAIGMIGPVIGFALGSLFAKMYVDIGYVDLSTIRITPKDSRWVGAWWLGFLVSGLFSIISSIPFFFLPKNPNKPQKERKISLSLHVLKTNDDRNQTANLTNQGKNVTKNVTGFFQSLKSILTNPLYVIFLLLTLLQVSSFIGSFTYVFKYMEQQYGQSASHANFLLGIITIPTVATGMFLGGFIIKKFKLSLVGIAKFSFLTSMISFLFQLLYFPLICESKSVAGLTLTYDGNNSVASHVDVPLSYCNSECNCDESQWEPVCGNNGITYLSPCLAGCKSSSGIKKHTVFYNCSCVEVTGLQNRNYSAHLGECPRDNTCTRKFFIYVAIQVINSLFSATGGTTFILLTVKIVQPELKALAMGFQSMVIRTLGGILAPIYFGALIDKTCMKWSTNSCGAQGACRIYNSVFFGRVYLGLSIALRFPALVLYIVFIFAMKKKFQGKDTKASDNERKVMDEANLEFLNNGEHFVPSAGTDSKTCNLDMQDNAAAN
Description: Human transfected OATP1B3 human embryonic kidney 293 cells (OATP1B3 HEK 293, SLCO1B3, Entrez Gene ID: 28234) were used (Leonhardt M et al. Drug Metab Dispos. 2010 July; 38(7):1024-8). The following culture medium was used: 500 mL DMEM (Dulbecco's Modified Eagle Medium—high Glucose, D6429), 50 mL FCS (fetal bovine serum, Fa. Sigma, F7524), 5.8 mL G418 (Geneticin, Fa. Gibco 10131-027) and 5 mL Pen-Strep. (Penicillin-Streptomycin, Fa. Gibco, Ref 15140-122). Cryopreserved cells were shortly thawed in water bath and diluted in 10 mL warm culture medium (37 °C). After medium change the cells were grown for 3d in a 25 cm^2 cell culture flask. After 3 to 5d the cells were transferred into 75 cm^2 flasks. For the splitting of cells these were incubated with 1.5 mL trypsin (Trypsin-EDTA (1×) 0.05%, Ref 25300-054 100 ml, Fa. Gibco) for 3-5 min in the incubator (37 °C, 5% CO2 and 95% oxygen). After centrifugation and washing with medium the cells were counted (50 μL cell suspension and 50 μL trypan blue (Trypan Blue Solution, 93595-50 ml, Fa. Fluka). Cells were cultured (1×10^5 cells/well) in poly-D-lysine coated 24-well plates (Fa. Corning, Ref: 354414) in 1.5 mL medium per well. After 48 hours in the incubator the medium was changed and 1.5 mL/well sodium butyrate containing medium were added (40 mL culture medium plus 400 μL Na-Butyrate, Fa. Sigma Aldrich B5887-5G, 250 mg in 2.27 mL MilliQ water). After 24 hours in the incubator the medium was vacuumed off and 1.5 mL transport buffer was added and incubated for 10 min. The transport buffer contains the following ingredients: 500 mL HBSS (Hank's balanced salt solution, Hyclone, SH30268.01), 5 mL HEPES buffer (4-(2-hydroxyethyl)-1-piperazine-ethanesulfonic acid, Gibco 15630-056) and 3.9 mL glucose (Sigma, G8270-100, 90 g/200 mL MilliQ water). All test items were prepared in transport buffer at a final concentration of 100 μM from stock solutions (180 to 500 mM concentration). The OATP1B3 HEK 293 cells were incubated with test solutions (test item in transport buffer 500 μL) for 40 min on a thermoshaker without shaking (PHMP, Fa. Grant Bio). Triplicates were performed for each test item. After incubation the cells were washed with 2 mL of cold PBS (+) buffer (Dulbeccos PBS+, Fa. Gibco). […] As a reference standard Gd-EOB-DTPA (gadoxetate) is used in the same well plate. The OATP1B3 HEK 293 uptake of the test compound is calculated relative to gadoxetate (resulting in the unit % of RC1).

[2] = Exploratory water solubility in 10 mM Tris-HCl buffer, pH 7.4; type: physicochemical; details: aqueous buffer (10 mM Tris-HCl), 20 °C
Description: The exploratory water solubility of the compounds is determined at room temperature (20 °C) in 0.5 mL buffer solution (10 mM Tris-HCl, pH 7.4) in the microcentrifuge tubes (Eppendorf, 2.0 mL safe-lock caps). The solid compounds were added stepwise to the buffer solution. More substance is added once all the suspended material is dissolved until an equilibrium between undissolved and dissolved substance is reached. The suspension was mixed using a shaker (Heidolph Reax 2000) and treated 5 min in an ultrasound bath (Bandelin, Sonorex Super RK255H). The Gadolinium concentration of the test substance in the clear solution is measured by ICP-MS.

Row | Compound | r1 human plasma [1] [L/mmol/s] | r1 water [1] [L/mmol/s] | Uptake into OATP1B3-HEK 293 cells (OATP1B3) | Solubility [2] [mM]
1 | CCOc1ccc(CC2CN(CC(=O)[O-])CCN(CC(=O)[O-])CCN(CC(=O)O)CCN2CC(=O)[O-])cc1.[Gd+3] (single isomer, unassigned; diastereomer 1) [Example 8, Gadolinium-2,2′,2″-[10-(carboxymethyl)-2-(4-ethoxybenzyl)-1,4,7,10-tetraazacyclododecane-1,4,7-triyl]triacetate (racemic diastereomer 1)] | 6.5 | 4.7 | 94 % of RC1 | 
2 | CCOc1ccc(CC2CN(CC(=O)[O-])CCN(CC(=O)[O-])CCN(CC(=O)O)CCN2CC(=O)[O-])cc1.[Gd+3] (single isomer, unassigned; diastereomer 2) [Example 9, Gadolinium-2,2′,2″-[10-(carboxymethyl)-2-(4-ethoxybenzyl)-1,4,7,10-tetraazacyclododecane-1,4,7-triyl]triacetate (racemic diastereomer 2)] | 5.6 | 4.3 | 13 % of RC1 | >145
3 | CCOc1ccc(C[C@H]2CN(CC(=O)[O-])CCN(CC(=O)[O-])CCN(CC(=O)O)CCN2CC(=O)[O-])cc1.[Gd+3] (single isomer, unassigned; stereoisomer 1) [Example 10] | 6.4 | 4.8 | 80 % of RC1 | >23
4 | CCCCOc1ccc(C[C@H]2CN(CC(=O)[O-])CCN(CC(=O)[O-])CCN(CC(=O)O)CCN2CC(=O)[O-])cc1.[Gd+3] (single isomer, unassigned; stereoisomer 1) [Example 12] | 8.8 | 4.7 | 66 % of RC1 | 211
5 | CCOc1ccc(C[C@H]2CN(CC(=O)[O-])CCN(CC(=O)[O-])CCN(CC(=O)O)CCN2CC(=O)[O-])cc1.[Gd+3] (single isomer, unassigned; stereoisomer 2) [Example 11] | 6.2 | 4.4 | 32 % of RC1 | >146
6 | CCCCOc1ccc(C[C@H]2CN(CC(=O)[O-])CCN(CC(=O)[O-])CCN(CC(=O)O)CCN2CC(=O)[O-])cc1.[Gd+3] (single isomer, unassigned; stereoisomer 2) [Example 13] | 9.8 | 5.3 | 383 % of RC1 | >43
7 | COCCOCCOCCOc1ccc(C[C@H]2CN(CC(=O)[O-])CCN(CC(=O)[O-])CCN(CC(=O)O)CCN2CC(=O)[O-])cc1.[Gd+3] [Example 1, Gadolinium-2,2′,2″-[(2S)-10-(carboxymethyl)-2-(4-{2-[2-(2-methoxyethoxy)-ethoxy]ethoxy}benzyl)-1,4,7,10-tetraazacyclododecane-1,4,7-triyl]triacetate] | 6.6 | 5.1 | 79 % of RC1 | >201
8 | CCOCCOCCOc1ccc(C[C@H]2CN(CC(=O)[O-])CCN(CC(=O)[O-])CCN(CC(=O)O)CCN2CC(=O)[O-])cc1.[Gd+3] [Example 2, Gadolinium-2,2′,2″-[(2S)-10-(carboxymethyl)-2-{4-[2-(2-ethoxyethoxy)ethoxy]benzyl}-1,4,7,10-tetraazacyclododecane-1,4,7-triyl]triacetate] | 5.9 | 4.9 | 121 % of RC1 | >55
9 | COCCOCCOCCOc1ccc(C[C@@H]2CN(CC(=O)[O-])CCN(CC(=O)[O-])CCN(CC(=O)O)CCN2CC(=O)[O-])cc1.[Gd+3] [Example 3, Gadolinium-2,2′,2″-[(2R)-10-(carboxymethyl)-2-(4-{2-[2-(2-methoxyethoxy)ethoxy]ethoxy}benzyl)-1,4,7,10-tetraazacyclododecane-1,4,7-triyl]triacetate] | 6.8 | 5.0 | 28 % of RC1 | >166
10 | CCOCCOCCOCCOc1ccc(C[C@H]2CN(CC(=O)[O-])CCN(CC(=O)[O-])CCN(CC(=O)O)CCN2CC(=O)[O-])cc1.[Gd+3] [Example 5, Gadolinium-2,2′,2″-[(2S)-10-(carboxymethyl)-2-(4-{2-[2-(2-ethoxyethoxy)ethoxy]ethoxy}benzyl)-1,4,7,10-tetraazacyclododecane-1,4,7-triyl]triacetate] | 5.7 | 5.1 | 100 % of RC1 | >284
11 | CCOCCOCCOc1ccc(C[C@H]2CN(CC(=O)[O-])CCN(CC(=O)[O-])CCN(CC(=O)O)CCN2CC(=O)[O-])nc1.[Gd+3] [Example 6, Gadolinium 2,2′,2″-[(2S)-10-(carboxymethyl)-2-({5-[2-(2-ethoxyethoxy)ethoxy]pyridin-2-yl}methyl)-1,4,7,10-tetraazacyclododecane-1,4,7-triyl]triacetate] | 5.9 | 5.3 | 32 % of RC1 | 
